Results published in ChEMBL document CHEMBL1201862, “PubChem BioAssay data set” (2004).
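Where inhibition never reached the appropriate level, the endpoint shown equals the highest concentration tested. Otherwise, values were interpolated linearly from a five-concentration, 48-hour dose response in 96-well plates. The concentration for 50% growth inhibition is given as GI50.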 Activity calls are given as the source filed them. Rule as the data show it: active = GI50 up to about 1.1 µM and inactive = higher.

Columns and labels:
Test in all cases: growth of human tumour cells (NCI), 48 h
A549 = tested on: A549
CCRF-CEM = tested on: CCRF-CEM
HCC 2998 = tested on: HCC 2998
HOP-92 = tested on: HOP-92
HT-29 = tested on: HT-29
IGROV-1 = tested on: IGROV-1
K562 = tested on: K562
KM12 = tested on: KM12
NCI-H226 = tested on: NCI-H226
NCI-H460 = tested on: NCI-H460
OVCAR-4 = tested on: OVCAR-4
OVCAR-8 = tested on: OVCAR-8
RXF 393 = tested on: RXF 393
SF-268 = tested on: SF-268
SF-295 = tested on: SF-295
SF-539 = tested on: SF-539
SK-OV-3 = tested on: SK-OV-3
SN12C = tested on: SN12C
SNB-75 = tested on: SNB-75
UO-31 = tested on: UO-31

| SMILES | GI50 (A549) | GI50 (CCRF-CEM) | GI50 (HCC 2998) | GI50 (HOP-92) | GI50 (HT-29) | GI50 (IGROV-1) | GI50 (K562) | GI50 (KM12) | GI50 (NCI-H226) | GI50 (NCI-H460) | GI50 (OVCAR-4) | GI50 (OVCAR-8) | GI50 (RXF 393) | GI50 (SF-268) | GI50 (SF-295) | GI50 (SF-539) | GI50 (SK-OV-3) | GI50 (SN12C) | GI50 (SNB-75) | GI50 (UO-31) |
| --- | --- | --- | --- | --- | --- | --- | --- | --- | --- | --- | --- | --- | --- | --- | --- | --- | --- | --- | --- | --- |
| Cc1c(OC(C)C(=O)O)ccc2c(-c3ccccc3)cc(=O)oc12 (stereo unspecified) | > 100 µM (inactive) | > 100 µM (inactive) | > 100 µM (inactive) | > 100 µM (inactive) | > 100 µM (inactive) | > 100 µM (inactive) | > 100 µM (inactive) | > 100 µM (inactive) | > 100 µM (inactive) | > 100 µM (inactive) | > 100 µM (inactive) | > 100 µM (inactive) | > 100 µM (inactive) | > 100 µM (inactive) | > 100 µM (inactive) | > 100 µM (inactive) | > 100 µM (inactive) | > 100 µM (inactive) | > 100 µM (inactive) | > 100 µM (inactive) |
| CC(C)C(=O)Cc1ccc2ccccc2n1 | > 100 µM (inactive) | > 100 µM (inactive) | > 100 µM (inactive) | > 100 µM (inactive) | > 100 µM (inactive) | 73.5 µM (inactive) |  | > 100 µM (inactive) | > 100 µM (inactive) | > 100 µM (inactive) | > 100 µM (inactive) | > 100 µM (inactive) | > 100 µM (inactive) | > 100 µM (inactive) | > 100 µM (inactive) |  | > 100 µM (inactive) | > 100 µM (inactive) | > 100 µM (inactive) | > 100 µM (inactive) |
| COc1ccc(-c2cs/c(=N\c3ccccc3)n2CCCN(C)C)cc1 | 17.1 µM (inactive) | 21.1 µM (inactive) | 16.3 µM (inactive) | 26.3 µM (inactive) |  |  |  | 15 µM (inactive) | 18.2 µM (inactive) | 23.8 µM (inactive) | 23.3 µM (inactive) | 21.8 µM (inactive) | 12.2 µM (inactive) | 24.3 µM (inactive) | 13 µM (inactive) | 13.6 µM (inactive) | 15.6 µM (inactive) | 33.7 µM (inactive) | 4.44 µM (inactive) | 12.4 µM (inactive) |
| CC1(Br)S(=O)(=O)OCCOS1(=O)=O | > 100 µM (inactive) | > 100 µM (inactive) | > 100 µM (inactive) | > 100 µM (inactive) | > 100 µM (inactive) | > 100 µM (inactive) | > 100 µM (inactive) |  | > 100 µM (inactive) | > 100 µM (inactive) | > 100 µM (inactive) | > 100 µM (inactive) | > 100 µM (inactive) | > 100 µM (inactive) | > 100 µM (inactive) | > 100 µM (inactive) | > 100 µM (inactive) | > 100 µM (inactive) | > 100 µM (inactive) | > 100 µM (inactive) |
| O=c1cc(O)c1=O | > 100 µM (inactive) | > 100 µM (inactive) | > 100 µM (inactive) | > 100 µM (inactive) | > 100 µM (inactive) | > 100 µM (inactive) | > 100 µM (inactive) | > 100 µM (inactive) | > 100 µM (inactive) | > 100 µM (inactive) | > 100 µM (inactive) | > 100 µM (inactive) |  | 61.2 µM (inactive) | > 100 µM (inactive) | > 100 µM (inactive) | > 100 µM (inactive) | > 100 µM (inactive) | > 100 µM (inactive) | > 100 µM (inactive) |
| C#CCN(Cc1ccc2nc(-c3ccccc3)c(Cl)nc2c1)c1ccc(F)cc1 | > 100 µM (inactive) | 17.5 µM (inactive) | > 100 µM (inactive) | 47 µM (inactive) | 61.9 µM (inactive) | > 100 µM (inactive) |  | > 100 µM (inactive) |  | > 100 µM (inactive) | 59.8 µM (inactive) | > 100 µM (inactive) |  | > 100 µM (inactive) | > 100 µM (inactive) | > 100 µM (inactive) |  | > 100 µM (inactive) | > 100 µM (inactive) | 80.7 µM (inactive) |
| COc1cc(C(C)c2cc3c(cc2OCCOCCOc2cc4c(cc2C(C)c2cc(OC)c(OC)c(OC)c2)OCO4)OCO3)cc(OC)c1OC (stereo unspecified) | > 10 µM (inactive) | > 10 µM (inactive) | > 10 µM (inactive) | 16.4 µM (inactive) | > 10 µM (inactive) | > 10 µM (inactive) | 36.1 µM (inactive) | > 10 µM (inactive) | > 10 µM (inactive) | > 10 µM (inactive) | > 10 µM (inactive) | > 10 µM (inactive) | > 10 µM (inactive) | > 10 µM (inactive) | 46.7 µM (inactive) | > 10 µM (inactive) | > 10 µM (inactive) | > 10 µM (inactive) | 19.1 µM (inactive) | 29.7 µM (inactive) |
| CCOC(=O)c1sc2nc(SC)nc(N3CCCCC3)c2c1N | > 100 µM (inactive) |  | > 100 µM (inactive) | > 100 µM (inactive) | > 100 µM (inactive) | > 100 µM (inactive) | > 100 µM (inactive) | > 100 µM (inactive) | > 100 µM (inactive) | > 100 µM (inactive) | > 100 µM (inactive) | > 100 µM (inactive) | > 100 µM (inactive) | > 100 µM (inactive) | > 100 µM (inactive) |  | > 100 µM (inactive) | > 100 µM (inactive) | > 100 µM (inactive) | > 100 µM (inactive) |
| Brc1cc(CCOC2CCCCO2)c(-c2sccc2CCOC2CCCCO2)s1 (stereo unspecified) | 24.8 µM (inactive) | 19.9 µM (inactive) | 31.9 µM (inactive) | > 65.2 µM (inactive) | 61.8 µM (inactive) | 53.2 µM (inactive) | 13.8 µM (inactive) | 27 µM (inactive) | > 100 µM (inactive) | 33.4 µM (inactive) | 48 µM (inactive) | 45.5 µM (inactive) | 0.8 µM (active) | 53.6 µM (inactive) | 18.7 µM (inactive) | 55.5 µM (inactive) | > 69.2 µM (inactive) | > 100 µM (inactive) | 43.5 µM (inactive) | 14 µM (inactive) |
| O=C(Cc1ccccc1)N/N=C(/c1nc2ccc([N+](=O)[O-])cc2nc1O)C(O)c1ccccc1Cl (stereo unspecified) | 80.2 µM (inactive) | > 100 µM (inactive) | 54 µM (inactive) | > 100 µM (inactive) | > 100 µM (inactive) | > 100 µM (inactive) | > 100 µM (inactive) | 79.3 µM (inactive) | > 100 µM (inactive) | > 100 µM (inactive) | > 100 µM (inactive) | > 100 µM (inactive) |  | > 100 µM (inactive) | > 100 µM (inactive) | > 100 µM (inactive) | > 100 µM (inactive) | > 100 µM (inactive) | > 100 µM (inactive) | > 100 µM (inactive) |
| CCOC(=O)CCC1(C(=O)OCC)CCCCC1=O (stereo unspecified) | > 100 µM (inactive) | > 100 µM (inactive) | > 100 µM (inactive) | > 100 µM (inactive) | > 100 µM (inactive) | > 100 µM (inactive) | > 100 µM (inactive) | > 100 µM (inactive) |  | > 100 µM (inactive) |  | > 100 µM (inactive) | > 100 µM (inactive) | > 100 µM (inactive) | > 100 µM (inactive) | > 100 µM (inactive) | > 100 µM (inactive) |  | > 100 µM (inactive) | > 100 µM (inactive) |
| O=c1oc2ccc(-n3c(=O)c4ccccc4c4ccccc4c3=O)cc2c2ccccc12 | > 100 µM (inactive) | > 100 µM (inactive) | > 100 µM (inactive) | 36.5 µM (inactive) | > 100 µM (inactive) | > 100 µM (inactive) | > 100 µM (inactive) | > 100 µM (inactive) | > 100 µM (inactive) | > 100 µM (inactive) | > 100 µM (inactive) | > 100 µM (inactive) | 85.1 µM (inactive) | 50 µM (inactive) | > 100 µM (inactive) | > 100 µM (inactive) | > 100 µM (inactive) | > 100 µM (inactive) | 27 µM (inactive) | > 100 µM (inactive) |
| C=C(C)C1Cc2c(cc(O)c3c(=O)c4ccccc4n(C)c23)O1 (stereo unspecified) | 49.8 µM (inactive) | 15.4 µM (inactive) | > 100 µM (inactive) | 20.6 µM (inactive) | > 100 µM (inactive) |  |  | > 100 µM (inactive) | 37.1 µM (inactive) | 43.5 µM (inactive) | 9.93 µM (inactive) |  | 15.6 µM (inactive) | 21.5 µM (inactive) | 7.45 µM (inactive) |  | 25.5 µM (inactive) | 43.1 µM (inactive) | 14.9 µM (inactive) |  |
| COC(=O)C12C3C4C1C1C2C3C41C(=O)O (stereo unspecified) | > 100 µM (inactive) | > 100 µM (inactive) | > 100 µM (inactive) | > 100 µM (inactive) | > 100 µM (inactive) | > 100 µM (inactive) | > 100 µM (inactive) |  | > 100 µM (inactive) | > 100 µM (inactive) | > 100 µM (inactive) | > 100 µM (inactive) | > 100 µM (inactive) | > 100 µM (inactive) | > 100 µM (inactive) | > 100 µM (inactive) | > 100 µM (inactive) | > 100 µM (inactive) |  | > 100 µM (inactive) |
| COC(=O)N[C@H](C(=O)NC(OCc1ccccc1)C1COC(C)(C)O1)C(C)O[Si](C)(C)C(C)(C)C (stereo partly specified) | > 100 µM (inactive) | > 100 µM (inactive) | 77.8 µM (inactive) | 70 µM (inactive) | 24.3 µM (inactive) | > 100 µM (inactive) | > 100 µM (inactive) |  |  | 57.3 µM (inactive) | > 100 µM (inactive) | > 100 µM (inactive) | > 100 µM (inactive) | > 100 µM (inactive) |  |  | > 100 µM (inactive) |  | 38.4 µM (inactive) | > 100 µM (inactive) |
